The source of these data is patent publication US20070149580A1, “USE OF PEROXISOME PROLIFERATOR ACTIVATED RECEPTOR DELTA AGONISTS FOR THE TREATMENT OF MS AND OTHER DEMYELINATING DISEASES” (AVENTIS PHARMACEUTICALS INC., priority 2004, published 2007).

In assay [1] the test system is mixed cultures of human oligodendrocytes. As to the kind of experiment: Human oligodendrocyte differentiation assay (O4 immunopositive cell count). In kind it is cell-based. The note with it: FIGS. 5 and 6. Here is the method:
• 1. Human neurospheres collected from E19.5-[…] human embryo cortex) are cultured for 2 weeks in progenitor media: […] Neurospheres are dissociated with 20 U/ml papain at 37° C. for 30-50 min. • 3. Cells are plated onto PDL coated dishes at density of 50,000-100,000 cell/well in progenitor media containing PDGF/FGF and incubated at 37° C. with 5-6% CO2. • 4. Media and growth factors are replenished every 48 hr. Human Culture Compound Treatment: • 1. 24 to 48 hr after plating remove the old medium and add compounds in fresh medium (with mitogen) • 2. Compound dose response evaluations are performed at 3-6 different concentrations (10 µM, 1 µM, 100 nM, 10 nM, 1 nM, and 0.1 nM) • 3. […] Sequential staining is performed on oligodendrocyte populations with increasing degrees of cellular differentiation, as determined by days in vitro without PDGF and FGF. • 2. […] Colormetric visualization of the BrdU immunoreactivity is developed with DAB and total cell numbers are assessed using the counter-stain hematoxylin. • 4. BrdU immunopositive cells are counted by two independent observers. Rat/Mouse/Human Culture Image Analysis: Fluorescent microscopy is used to quantitate the extent of oligodendrocyte differentiation after compound exposure. […] Manual Cell Counting: Four fields are randomly selected for each experimental condition and 500-600 cells are counted in each field. […]

For the next assay, the target named is T1, human PPAR alpha (Homo sapiens, UniProt Q07869).
T1 construct: human PPAR alpha receptor (amino acids S167-Y468); expressed in transfected cells; host or cells: HEK cells, stably transfected (pcDNA3, CMV promoter)
T1 sequence (Q07869 167-468): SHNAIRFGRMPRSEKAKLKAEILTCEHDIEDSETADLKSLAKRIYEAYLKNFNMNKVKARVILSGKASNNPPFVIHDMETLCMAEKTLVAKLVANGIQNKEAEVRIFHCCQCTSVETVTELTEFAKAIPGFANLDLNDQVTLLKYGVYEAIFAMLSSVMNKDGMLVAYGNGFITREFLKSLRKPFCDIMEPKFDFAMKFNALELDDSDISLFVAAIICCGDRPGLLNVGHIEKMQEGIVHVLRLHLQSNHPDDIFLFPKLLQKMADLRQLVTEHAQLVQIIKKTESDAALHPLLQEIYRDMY
Put plainly: Cellular PPAR alpha GAL4/luciferase reporter assay (HEK reporter cell line). In kind it is cell-based. (A reporter such as luciferase makes a cellular process visible.)

A further assay has as its target T2, human PPAR delta (Homo sapiens, UniProt Q03181).
T2 sequence (Q03181 139-441): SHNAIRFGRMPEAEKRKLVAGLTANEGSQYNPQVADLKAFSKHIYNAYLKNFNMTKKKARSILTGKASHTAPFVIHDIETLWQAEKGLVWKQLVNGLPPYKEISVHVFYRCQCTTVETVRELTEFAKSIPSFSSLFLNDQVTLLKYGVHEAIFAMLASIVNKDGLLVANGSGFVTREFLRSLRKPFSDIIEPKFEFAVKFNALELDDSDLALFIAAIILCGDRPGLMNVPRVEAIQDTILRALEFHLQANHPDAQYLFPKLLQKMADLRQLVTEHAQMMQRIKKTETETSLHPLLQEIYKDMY
Put plainly: cell-based.

Broadly, the EC50 is the concentration at which the effect is half-maximal. A lower EC50 goes with a more potent agent.

The structures appear in SMILES notation.

Procedure for human PPAR alpha: The potency of substances which bind to human PPAR alpha and activate it in an agonistic manner is analyzed using a stably transfected HEK cell line (HEK=human embryo kidney) which is referred to here as PPAR alpha reporter cell line. It contains two genetic elements, a luciferase reporter element (pdeltaM-GAL4-Luc-Zeo) and a PPAR alpha fusion protein (GR-GAL4-humanPPAR alpha-LBD) which mediates expression of the luciferase reporter element depending on a PPAR alpha ligand. The stably and constitutively expressed fusion protein GR-GAL4-humanPPAR alpha-LBD binds in the cell nucleus of the PPAR alpha reporter cell line via the GAL4 protein portion to the GAL4 DNA binding motifs 5′-upstream of the luciferase reporter element which is stably integrated in the genome of the cell line. […] PPAR alpha ligands bind and activate the PPAR alpha fusion protein and thereby stimulate the expression of the luciferase reporter gene.
The finished PPAR alpha reporter cell line which contains a luciferase reporter element and constitutively expresses the PPAR alpha fusion protein (GR-GAL4-human PPAR alpha-LBD) was isolated by selection with zeocin (0.5 mg/ml) and G418 (0.5 mg/ml).

On to `Cc1cc(SCc2sc(-c3ccc(C(F)(F)F)cc3)nc2C)ccc1OCC(=O)O` [Compound 1], for which the “number of O4 immunopositive cells” value in assay [1] was “increase”.

Take `CCCc1c(OCCCOc2ccc(OCC(=O)O)cc2)ccc(C(C)=O)c1O` [Compound 2]: the “number of O4 immunopositive cells” value in assay [1] is recorded as “increase”. In addition, the EC50 turned out to be 1.1 µM at human PPAR alpha and 0.039 µM at human PPAR delta.
